Reference: patent US7888319B2, “Compositions and methods for promoting wound healing and tissue regeneration” (MUSC Foundation for Research Development, priority 2004, dated 2011)
Ends that are not written are not given here.

Experiments:
[1] = test system: Cx43 gap junction formation; assay: Cx43 gap junction formation in cultured neonatal myocytes; format: cell-based, rat; settings: 30 μM peptide, 5 days in culture, relative to non-active control peptide and PBS
Experimental: Myocytes from neonatal rat hearts were grown until forming a near-confluent monolayer on a tissue culture dish according to standard protocols. The cultures were subsequently allowed to culture for a further 5 days in culture medium comprising (a) 30 μM ACT 1 peptide (SEQ ID NO:2), (b) 30 μM non-active control peptide (SEQ ID NO:55), or (c) phosphate buffered saline (PBS) containing no ACT peptide or control. Culture media with added peptides or vehicle control was changed every 24 hours during the experiment. […] This increase in Cx43 gap junction formation in response to ACT peptide is shared by a number of cell types expressing Cx43.
Myocytes from neonatal rat hearts were grown until forming a near-confluent monolayer on a tissue culture dish according to standard protocols. The cultures were subsequently allowed to culture for a further 5 days culture medium comprising 30 μM ACT 1 peptide (SEQ ID NO:2), 30 μM non-active control peptide (SEQ ID NO:55), or phosphate buffered saline (PBS) containing no ACT peptide or control peptide. The non-active control peptide comprises a polypeptide with a carboxy terminus in which the ACT peptide sequence has been reversed. […]

NIH-3T3 cells = assay: In vitro scratch injury of NIH-3T3 monolayer (repopulation, PCNA immunolabeling); format: cell-based; settings: 30 μM
Experimental: An NIH-3T3 monolayer was pre-treated with ACT 1 peptide (SEQ ID NO:2) for 24 hrs, and “scratch-injured” with a p200 pipette tip. The “scratch injury” was subsequently allowed to “heal” for 24 hours in the presence of (a, b) 30 μM ACT 1 peptide (SEQ ID NO:2), (c, d) 30 μM non-active control peptide (SEQ ID NO: 55), or (e, f) vehicle control solution containing no ACT peptide or control peptide. […] The repopulation of the “scratch injury” occurs in part via migration of the transformed cells crawling into the “scratch injury” area. Figures (b), (d) and (f) show proliferating cell nuclear antigen (PCNA) immunolabeling of cells in the “scratch injury” or at the injury edge.
NIH-3T3 fibroblasts were “scratch injured” and subject to the continuous presence of 30 μM ACT 1 peptide (SEQ ID NO:2) for 24 hours or the control conditions as outlined in FIG. 2. […] The cells have been labeled with fluorescent phalloidin to aid visualization. ACT peptide-treated cells show low levels of repopulation of the scratch injury area (white double headed arrows).
NIH-3T3 cells were grown over 2-3 days until forming a near-confluent monolayer on a tissue culture dish according to standard protocols and the monolayer was then pre-treated with ACT 1 peptide (SEQ ID NO:2) for 24 hrs, and “scratch-injured” with a p200 pipette tip. The “scratch injury” was subsequently allowed to repopulate for 24 hours in the presence of 30 μM ACT 1 peptide (SEQ ID NO:2) dissolved in the culture media (FIG. 2a, b) or in presence of two control conditions (FIG. 2c-f). In the first control condition, the “scratch-injured” cells were allowed to repopulate for 24 hours in the presence of a non-active control peptide (as in FIG. 1) dissolved in the culture media at a concentration of 30 μM (FIG. 2c, d). In the second control condition, phosphate buffered saline (PBS) was added to the culture media and the “scratch-injured” cells were allowed to repopulate in the presence of this vehicle control solution containing no ACT peptide or control peptide (FIG. 2e, f). […] The repopulation of the “scratch injury” occurs in part via migration of the transformed cells crawling into the “scratch injury” area. Figures (FIGS. 2b, d, and f) show proliferating cell nuclear antigen (PCNA) immunolabeling of cells in the “scratch injury” or at the injury edge.
The cells were labeled with fluorescent phalloidin to aid visualization. ACT peptide-treated cells show low levels of repopulation of the scratch injury area (white double headed arrows).

[2] = test system: 4 mm long incisional skin injury; assay: Incisional skin injury in neonatal mouse; format: in vivo
Experimental: Neonatal mouse pups were desensitized using hypothermia. A 4 mm long incisional skin injury was made using a scalpel through the entire thickness of the skin (down to the level of the underlying muscle) in the dorsal mid line between the shoulder blades. 30 μl of a solution of 20% pluronic (F-127) gel containing either no (control) or dissolved ACT 1 peptide (SEQ ID NO: 2) at a concentration of 60 μM was then applied to the incisional injuries. Control or ACT peptide containing gel was applied subsequently 24 hours after the initial application. No further application of control and ACT peptide containing gel was made after the second application. […] These differences in inflammation, swelling and healing between the control and ACT peptide and control treated injury persisted at the 72 (c, d) and 96 (e, f) hour time points. […] Note that images of the same injury on the same animal are shown at the different time points during the healing time course. Neonatal mouse pups were desensitized using hypothermia. A 4 mm long incisional skin injury was made using a scalpel through the entire thickness of the skin (down to the level of the underlying muscle) in the dorsal mid line between the shoulder blades. 30 μl of a solution of 20% pluronic (F-127) gel containing either no (control) or dissolved ACT 1 peptide (SEQ ID NO:2) at a concentration of 60 μM was then applied to the incisional injuries. Pluronic gel has mild surfactant properties that may aid in the uniform dispersion of the ACT peptide in micelles. More importantly, 20% pluronic gel stays liquid at temperatures below 15° C., but polymerizes at body temperature (37° C.). This property of pluronic gel probably aided in the controlled release of peptide into the tissue at the site of incisional injury, protecting the peptide from break-down in the protease-rich environment of the wound and also enabling active concentrations of the peptide to maintained over prolonged periods. Control or ACT peptide containing gel was applied subsequently 24 hours after the initial application. […]

RPRPDDLEI (not fully specified (N-terminus)) [ACT 1, carboxy-terminal 9 amino acids of human Cx43; amino terminus biotinylated in tests]
extent of Cx43 gap junction formation between myocytes [1]: greatly increased | proliferating cell nuclear antigen (PCNA) immunolabeling of cells in the scratch injury or at the injury edge (NIH-3T3 cells; 24 hours after scratch): only low luminosity consistent with background and non-proliferation | % area of cells repopulating the scratch injury after 24 hours (NIH-3T3 cells; 24 hours, vs control conditions, p<0.000001): reduction of cells in the injury area in the presence of ACT peptide is dramatic | appearance of injury (closure, inflammation, swelling, healing) ([2]; 60 μM in 20% pluronic (F-127) gel, 30 μl, applied at 0 and 24 hours, by 48 hours, vs gel without peptide): significantly more closed, less inflamed, less swollen | differences in inflammation, swelling and healing versus control ([2]; 60 μM in 20% pluronic gel, 72 and 96 hour time points): persisted | scar appearance of wound ([2]; 60 μM in 20% pluronic gel, at 7 days): smoother and less scarred appearance
